Test results: patent publication US20100041089A1, “IMPROVED METHOD FOR DETECTING CHEMICAL […]” (priority 2006, published 2010)

Tested on: yeast genes (expressed mRNA)
Test: DNA chip measurement of expressed mRNA of yeast genes after culture with a toxic chemical substance
Format: cell-based, Saccharomyces cerevisiae S288C
Method: Yeast (Saccharomyces cerevisiae S288C (a SUC2mal mel gap2 CUP1)) were cultured at 25° C. on YPD medium (yeast extract 1%, polypeptone 2%, glucose 2%). One of toxic chemical substances was added to the cell at logarithmic growth phase, and the cell was further cultured for two hours. Cell was cultured without any chemical substance in the same condition, and was used as a control. Concentrations of the chemical substances were defined to inhibit the growth of the yeast but not lead to death.
After the completion of cultivation, the culture was centrifuged to collect the cells. To the cells, sodium acetate buffer (50 mM sodium acetate, 10 mM EDTA, 1% SDS) was added, and the mixture was shaken at 65° C. for five minutes, followed by returning to room temperature, and obtaining the supernatant, which procedure was repeated two times. To the supernatant, ½ amount of a solution of phenol/chloroform (1:1) was added, and the mixture was centrifuged to give a supernatant, an equal amount of chloroform was added, and the mixture was centrifuged to give a supernatant. To the supernatant, an equal amount of isopropanol containing 0.3 M sodium acetate was added, and the mixture was allowed to stand at room temperature for 30 minutes, after which the mixture was centrifuged to give sediment of the whole RNAs. Seventy % ethanol was added to the sediment, and the mixture was again centrifuged to give sediment, which was then dried and dissolved in water. mRNA was isolated from the whole RNAs as followings. In view of the fact that a poly A chain is attached to the 3′ terminus of mRNA, a polynucleotide having a poly T structure which was immobilized on the surface of latex beads was used to trap the mRNA, and then the mRNA was washed and eluted with spine column (Oligotex-dT30<Super>mRNA Purification Kit, Takara). Reverse transcription of the mRNA was conducted with a reverse transcriptase (Super Script II Reverse Transcriptase; catalogue No. 18064-014, GibcoBRL) using fluorescence-labeled nucleotides to give cDNAs that were introduced with Cy3-dUTP or Cy5-dUTP during the reverse transcription.
The labeled cDNAs were dissolved in TE buffer (10 mM Tris-HCl/1 mM EDTA, pH 8.0), and the solution was dropped on the DNA chip containing the whole genes of yeast (DNA Chip Research Inc. Japan) so that the cDNAs were hybridized on the DNA chip at 65° C. for over 12 hours. The fluoresces intensity of the DNA chip was read with a scanner, and the ratio relative to the fluorescence intensity resulting from the absence of chemical substance was estimated as the following, which is shown in Tables 1 to 9.
In the Tables, “Intensity” indicated in the rightmost column is a value of the level of expressed mRNA of each gene in control cells as divided by the average level of the expressions of the whole genes. A gene of which mRNA level is lower in control, and is higher in cases of addition of chemical substance, is especially useful in the detection of toxic substances.
Here, when a ratio of an amount of mRNA expressed in the presence of the chemical substance to an amount of mRNA expressed in the absence of the chemical substance is two or more, then it is considered significant.

CN(C)C(=S)SSC(=S)N(C)C [(10), Tetramethylthiuram disulfide]
The level of expressed mRNA in the presence of chemical substance/The level of expressed mRNA in the absence of chemical substance (yeast gene YNL077W): 5.1 | The level of expressed mRNA in the presence of chemical substance/The level of expressed mRNA in the absence of chemical substance (yeast gene YNL092W, cultured two hours with substance): 1.5 | The level of expressed mRNA in the presence of chemical substance/The level of expressed mRNA in the absence of chemical substance (yeast gene YNL115C, cultured two hours with substance): 1.9 | The level of expressed mRNA in the presence of chemical substance/The level of expressed mRNA in the absence of chemical substance (yeast gene YNL156C, cultured two hours with substance): 1.9 | The level of expressed mRNA in the presence of chemical substance/The level of expressed mRNA in the absence of chemical substance (yeast gene YNL190W, cultured two hours with substance): 1.1 | The level of expressed mRNA in the presence of chemical substance/The level of expressed mRNA in the absence of chemical substance (yeast gene YNL195C, cultured two hours with the chemical substance): 11.7 | The level of expressed mRNA in the presence of chemical substance/The level of expressed mRNA in the absence of chemical substance (yeast gene YNL208W, cultured two hours with substance): 3.1 | The level of expressed mRNA in the presence of chemical substance/The level of expressed mRNA in the absence of chemical substance (yeast gene YNL234W, cultured two hours with substance): 3.3 | The level of expressed mRNA in the presence of chemical substance/The level of expressed mRNA in the absence of chemical substance (yeast gene YNL277W): 10.9 | The level of expressed mRNA in the presence of chemical substance/The level of expressed mRNA in the absence of chemical substance (yeast gene YNL281W, cultured two hours with substance): 1.6 | The level of expressed mRNA in the presence of chemical substance/The level of expressed mRNA in the absence of chemical substance (yeast gene YNL300W, cultured two hours with substance): 0.2 | The level of expressed mRNA in the presence of chemical substance/The level of expressed mRNA in the absence of chemical substance (yeast gene YNL305C, cultured two hours with substance): 2.1 | The level of expressed mRNA in the presence of chemical substance/The level of expressed mRNA in the absence of chemical substance (yeast gene YNL331C): 36.3 | The level of expressed mRNA in the presence of chemical substance/The level of expressed mRNA in the absence of chemical substance (yeast gene YNL331C, cultured for two hours with substance): 36.3 | The level of expressed mRNA in the presence of chemical substance/The level of expressed mRNA in the absence of chemical substance (yeast gene YNR064C, cultured two hours with substance): 2.1 | The level of expressed mRNA in the presence of chemical substance/The level of expressed mRNA in the absence of chemical substance (yeast gene YNR068C, cultured two hours with substance): 14.4 | The level of expressed mRNA in the presence of chemical substance/The level of expressed mRNA in the absence of chemical substance (yeast gene YNR073C): 16.8 | The level of expressed mRNA in the presence of chemical substance/The level of expressed mRNA in the absence of chemical substance (yeast gene YOL002C, cultured two hours with the substance): 0.3 | The level of expressed mRNA in the presence of chemical substance/The level of expressed mRNA in the absence of chemical substance (yeast gene YOL032W, cultured two hours with substance): 3.0 | The level of expressed mRNA in the presence of chemical substance/The level of expressed mRNA in the absence of chemical substance (yeast gene YOL036W, cultured two hours with substance): 2.8 | The level of expressed mRNA in the presence of chemical substance/The level of expressed mRNA in the absence of chemical substance (yeast gene YOL047C, cultured two hours with substance): 2.3 | The level of expressed mRNA in the presence of chemical substance/The level of expressed mRNA in the absence of chemical substance (yeast gene YOL058W): 15.7 | The level of expressed mRNA in the presence of chemical substance/The level of expressed mRNA in the absence of chemical substance (yeast gene YOL071W, cultured two hours with substance): 2.3 | The level of expressed mRNA in the presence of chemical substance/The level of expressed mRNA in the absence of chemical substance (yeast gene YOL082W, cultured two hours with substance): 2.0 | The level of expressed mRNA in the presence of chemical substance/The level of expressed mRNA in the absence of chemical substance (yeast gene YOL083W, cultured two hours with substance): 2.3 | The level of expressed mRNA in the presence of chemical substance/The level of expressed mRNA in the absence of chemical substance (yeast gene YOL101C, cultured two hours with substance): 0.3 | The level of expressed mRNA in the presence of chemical substance/The level of expressed mRNA in the absence of chemical substance (yeast gene YOL117W, cultured two hours with substance): 4.1 | The level of expressed mRNA in the presence of chemical substance/The level of expressed mRNA in the absence of chemical substance (yeast gene YOL131W, cultured two hours with substance): 8.1 | The level of expressed mRNA in the presence of chemical substance/The level of expressed mRNA in the absence of chemical substance (yeast gene YOL150C, cultured two hours with substance): 8.3 | The level of expressed mRNA in the presence of chemical substance/The level of expressed mRNA in the absence of chemical substance (yeast gene YOL162W, cultured two hours with substance): 6.8 | The level of expressed mRNA in the presence of chemical substance/The level of expressed mRNA in the absence of chemical substance (yeast gene YOL163W (transport facilitation protein gene)): 6.2 | The level of expressed mRNA in the presence of chemical substance/The level of expressed mRNA in the absence of chemical substance (yeast gene YOL165C): 23.3 | The level of expressed mRNA in the presence of chemical substance/The level of expressed mRNA in the absence of chemical substance (yeast gene YOL165C, cultured for two hours with substance): 23.3 | The level of expressed mRNA in the presence of chemical substance/The level of expressed mRNA in the absence of chemical substance (yeast gene YOR019W, cultured two hours with substance): 7.1 | The level of expressed mRNA in the presence of chemical substance/The level of expressed mRNA in the absence of chemical substance (yeast gene YOR197W, cultured two hours with substance): 0.7 | The level of expressed mRNA in the presence of chemical substance/The level of expressed mRNA in the absence of chemical substance (yeast gene YOR248W, cultured two hours with substance): 0.4 | The level of expressed mRNA in the presence of chemical substance/The level of expressed mRNA in the absence of chemical substance (yeast gene YOR382W, cultured two hours with substance): 12.8 | The level of expressed mRNA in the presence of chemical substance/The level of expressed mRNA in the absence of chemical substance (yeast gene YOR383C): 4.5 | The level of expressed mRNA in the presence of chemical substance/The level of expressed mRNA in the absence of chemical substance (yeast gene YOR391C, cultured two hours with substance): 18.1 | The level of expressed mRNA in the presence of chemical substance/The level of expressed mRNA in the absence of chemical substance (yeast gene YPL017C, metabolism protein genes): 6.7 | The level of expressed mRNA in the presence of chemical substance/The level of expressed mRNA in the absence of chemical substance (yeast gene YPL052W, cultured two hours with substance): 4.8 | The level of expressed mRNA in the presence of chemical substance/The level of expressed mRNA in the absence of chemical substance (yeast gene YPL087W, cultured two hours with substance): 2.2 | The level of expressed mRNA in the presence of chemical substance/The level of expressed mRNA in the absence of chemical substance (yeast gene YPL171C, cultured for two hours with substance): 50.6 | The level of expressed mRNA in the presence of chemical substance/The level of expressed mRNA in the absence of chemical substance (yeast gene YPL196W, cultured two hours with substance): 2.8 | The level of expressed mRNA in the presence of chemical substance/The level of expressed mRNA in the absence of chemical substance (yeast gene YPL206C, cultured two hours with substance): 1.1 | The level of expressed mRNA in the presence of chemical substance/The level of expressed mRNA in the absence of chemical substance (yeast gene YPL222W, cultured two hours with substance): 3.4 | The level of expressed mRNA in the presence of chemical substance/The level of expressed mRNA in the absence of chemical substance (yeast gene YPL223C (stress protein genes)): 16.5 | The level of expressed mRNA in the presence of chemical substance/The level of expressed mRNA in the absence of chemical substance (yeast gene YPR023C, cultured two hours with substance): 2.8 | The level of expressed mRNA in the presence of chemical substance/The level of expressed mRNA in the absence of chemical substance (yeast gene YPR079W, cultured two hours with substance): 2.8 | The level of expressed mRNA in the presence of chemical substance/The level of expressed mRNA in the absence of chemical substance (yeast gene YPR151C, cultured two hours with substance): 9.5
